Measured values: ChEMBL document CHEMBL2074145, “Active transport of fluorescent P-glycoprotein substrates: evaluation as markers and interaction with inhibitors” (Biochem Biophys Res Commun, 2001)

Assays:
[1] = target: T1, ATP-dependent translocase ABCB1 (Homo sapiens, UniProt P08183)
Description: TP_TRANSPORTER: inhibition of Daunorubicin efflux in NIH-3T3-G185 cells

[2] = target: T1, ATP-dependent translocase ABCB1; remark: listed apart in the source
Description: TP_TRANSPORTER: inhibition of Rhodamine 123 efflux in NIH-3T3-G185 cells

[3] = target: T1, ATP-dependent translocase ABCB1; remark: listed apart in the source
Description: TP_TRANSPORTER: inhibition of LDS-751 efflux in NIH-3T3-G185 cells

[4] = target: T1, ATP-dependent translocase ABCB1; remark: listed apart in the source
Description: TP_TRANSPORTER: inhibition of Fluo-3-AM efflux in NIH-3T3-G185 cells

[5] = target: T1, ATP-dependent translocase ABCB1; remark: listed apart in the source
[6] = target: T1, ATP-dependent translocase ABCB1; remark: listed apart in the source
Description: TP_TRANSPORTER: inhibition of Calcein-AM efflux in NIH-3T3-G185 cells

[7] = target: T1, ATP-dependent translocase ABCB1; remark: listed apart in the source
Description: TP_TRANSPORTER: inhibition of Tetramethylrosamine efflux in NIH-3T3-G185 cells

[8] = target: T1, ATP-dependent translocase ABCB1; test: TP_TRANSPORTER: inhibition of Daunorubicin, LDS-751 and Rhodamine 123 efflux in NIH-3T3-G185 cells; assay type: functional, cell-based; details: mouse

T1 sequence (P08183 whole entry): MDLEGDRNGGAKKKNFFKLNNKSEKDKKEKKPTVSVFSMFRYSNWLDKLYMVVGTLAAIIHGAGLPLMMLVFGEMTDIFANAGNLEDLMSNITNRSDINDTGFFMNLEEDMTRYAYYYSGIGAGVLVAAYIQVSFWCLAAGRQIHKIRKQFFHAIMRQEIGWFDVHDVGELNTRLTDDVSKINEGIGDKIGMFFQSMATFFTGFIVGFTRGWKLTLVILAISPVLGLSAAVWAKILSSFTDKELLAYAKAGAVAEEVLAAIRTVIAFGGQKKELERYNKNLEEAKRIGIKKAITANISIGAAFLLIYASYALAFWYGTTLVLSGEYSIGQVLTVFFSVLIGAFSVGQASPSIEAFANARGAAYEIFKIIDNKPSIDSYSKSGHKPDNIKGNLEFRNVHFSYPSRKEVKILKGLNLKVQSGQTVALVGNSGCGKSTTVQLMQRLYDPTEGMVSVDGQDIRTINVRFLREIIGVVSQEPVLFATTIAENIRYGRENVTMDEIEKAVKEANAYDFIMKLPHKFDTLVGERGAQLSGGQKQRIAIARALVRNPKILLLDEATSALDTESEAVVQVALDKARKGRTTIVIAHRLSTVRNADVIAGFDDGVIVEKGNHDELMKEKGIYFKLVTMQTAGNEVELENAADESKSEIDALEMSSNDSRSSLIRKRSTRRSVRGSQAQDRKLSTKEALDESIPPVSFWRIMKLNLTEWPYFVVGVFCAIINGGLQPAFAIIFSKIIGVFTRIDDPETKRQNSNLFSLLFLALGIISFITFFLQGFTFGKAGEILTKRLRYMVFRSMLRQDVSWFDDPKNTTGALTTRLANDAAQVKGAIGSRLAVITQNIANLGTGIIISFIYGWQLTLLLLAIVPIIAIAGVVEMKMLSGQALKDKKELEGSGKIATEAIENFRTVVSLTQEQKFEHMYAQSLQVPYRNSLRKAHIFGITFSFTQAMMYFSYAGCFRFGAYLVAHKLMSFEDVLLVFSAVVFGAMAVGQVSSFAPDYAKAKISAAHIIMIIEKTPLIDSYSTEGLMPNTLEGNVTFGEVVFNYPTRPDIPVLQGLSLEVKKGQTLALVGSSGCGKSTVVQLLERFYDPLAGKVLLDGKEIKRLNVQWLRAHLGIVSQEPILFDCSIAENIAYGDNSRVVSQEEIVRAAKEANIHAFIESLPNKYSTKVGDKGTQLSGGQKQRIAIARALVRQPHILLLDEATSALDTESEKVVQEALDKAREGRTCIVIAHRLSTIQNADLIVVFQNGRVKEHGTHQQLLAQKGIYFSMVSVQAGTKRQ

Row | SMILES | IC50 [1] [µM] | IC50 [2] [µM] | IC50 [3] [µM] | IC50 [4] [µM] | IC50 [5] [µM] | IC50 [6] [µM] | IC50 [7] [µM] | Activity [8]
1 | OCCN1CCN(CCCN2c3ccccc3Sc3ccc(C(F)(F)F)cc32)CC1 [FLUPHENAZINE] | 6.5 | 10.4 | 5.7 | – | – | – | – | –
2 | CC[C@H]1OC(=O)[C@H](C)[C@@H](O[C@H]2C[C@@](C)(OC)[C@@H](O)[C@H](C)O2)[C@H](C)[C@@H](O[C@@H]2O[C@H](C)C[C@H](N(C)C)[C@H]2O)[C@](C)(OC)C[C@@H](C)C(=O)[C@H](C)[C@@H](O)[C@]1(C)O [CLARITHROMYCIN] | 3.8 | 15.1 | 7.2 | 86.7 | 50.2 | 56.1 | 23.8 | –
3 | CC(C)/N=c1\cc2n(-c3ccc(Cl)cc3)c3ccccc3nc-2cc1Nc1ccc(Cl)cc1 [CLOFAZIMINE] | 0.6 | 1 | 1.1 | – | – | – | – | –
4 | CC(=O)O[C@H]1C(=O)[C@@]2(C)[C@H]([C@H](OC(=O)c3ccccc3)[C@]3(O)C[C@H](OC(=O)[C@H](O)[C@@H](NC(=O)c4ccccc4)c4ccccc4)C(C)=C1C3(C)C)[C@]1(OC(C)=O)CO[C@@H]1C[C@@H]2O [PACLITAXEL] | 54 | 70.2 | 53.9 | – | – | – | – | –
5 | COc1ccccc1OCCNCC(O)COc1cccc2[nH]c3ccccc3c12 (stereo unspecified) [CARVEDILOL] | 4.6 | 6.6 | 6 | – | – | – | – | –
6 | COc1ccc2c(c1)c(CC(=O)O)c(C)n2C(=O)c1ccc(Cl)cc1 [INDOMETHACIN] | – | – | – | – | – | – | – | is not an inhibitor [-]
7 | c1ccc([P+](c2ccccc2)(c2ccccc2)c2ccccc2)cc1 [TETRAPHENYLPHOSPHONIUM] | 490 | – | 427 | – | – | – | – | –
8 | CC[C@H]1CN2CCc3cc(OC)c(OC)cc3[C@@H]2C[C@@H]1C[C@H]1NCCc2cc(OC)c(OC)cc21 [EMETINE] | 9.2 | 9.6 | 2.4 | 130 | 116 | 35.1 | 207 | –
9 | COC(=O)[C@H]1[C@H]2C[C@@H]3c4[nH]c5cc(OC)ccc5c4CCN3C[C@H]2C[C@@H](OC(=O)c2cc(OC)c(OC)c(OC)c2)[C@@H]1OC [RESERPINE] | 0.5 | 3.9 | 2.1 | 2.1 | 6.1 | 2.6 | 5.3 | –
10 | COc1ccc(CCNCCCC(C#N)(c2cc(OC)c(OC)c(OC)c2)C(C)C)cc1OC (stereo unspecified) [N-Norgallopamil] | 3.6 | 8.6 | 4.9 | – | – | – | – | –
11 | C=C[C@@]1(C)CC(=O)[C@]2(O)[C@@]3(C)[C@@H](O)CCC(C)(C)[C@@H]3[C@H](O)[C@H](OC(C)=O)[C@@]2(C)O1 [COLFORSIN] | 80.2 | – | 188 | – | – | – | – | –
